Results published in PubChem BioAssay AID1625 (Sanford-Burnham Center for Chemical Genomics, 2009).
Activity calls are given as the source filed them.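 The calls were made as follows: active = z-score above 3 at 5 µM with at least 500 cells counted in the well; inconclusive = wells under 500 cells, flagged as cytotoxic or low count; inactive = the rest.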

System: MIN6 insulin promoter-GFP reporter, high-content imaging
Assay: insulin promoter activators in MIN6 cells, imaging, high-content screening, mouse beta cells (AID 1625)

Row | Compound | EC50
1 | CCCN1C(=O)/C(=C\C=C2\N(CC)c3ccccc3C2(C)C)SC1=S | > 16 µM (inactive)
2 | CCN1CCc2c(sc(NC(=S)NC(=O)c3ccc(Cl)cc3)c2C(N)=O)C1 | 14.1 µM (inactive)
3 | CN1C(=S)N(c2cccnc2)C(=O)/C1=C\c1ccc(N(C)C)cc1 | > 16 µM (inactive)

Now from value to compound:

Row | EC50 | Compound
4 | 9.04 µM | Cc1nnc(NC(=O)c2sc3nc(-c4cccs4)cc(C(F)(F)F)c3c2N)s1
5 | > 16 µM (inactive) | O=[N+]([O-])c1ccc(-c2ccc(/C=N/Nc3nc(NCc4ccccc4)nc(N4CCOCC4)n3)o2)cc1
